Measured values published in patent US12281149B2, “Modulators of G-protein coupled receptors” (priority 2021, dated 2025).
Like-named read-outs stand apart in the source and are kept apart here. *1 amine or outer side, *2 acyl side, *3 side chain or, on linkers, in order; H or OH if unused. Where a SMILES comes first, the peptide text is derived from it. Side-chain parts run from the residue outwards. [ ]: non-standard residue; d: D form. The star is where a group is joined. NH(4-Cl-3-CF3-phenyl) = FC(F)(F)c1cc(N*)ccc1Cl; C20 diacid = O=C(O)CCCCCCCCCCCCCCCCCCC(=O)*; αMePhe(2-F) = C[C@](N)(Cc1ccccc1F)C(=O)O; NH(3,5-Cl2-phenyl) = Clc1cc(Cl)cc(N*)c1; γGlu = O=C(O)[C@H](CCC(=O)[*:2])N[*:1]; X60 = O=C(C1(c2cccnc2)CCCC1)*; X16 = FC(F)(F)c1cccc(N*)c1; AEEA = NCCOCCOCC(=O)O; Aib = CC(C)(N)C(=O)O; CO = O=C([*:1])[*:2]; X63 = Fc1ccc(N*)cc1F; GABA = NCCCC(=O)O; βAla = NCCC(=O)O

Tests used:
Type in all cases: cell-based
[1] = biological target: T1, GLP-1 receptor (Homo sapiens, UniProt P43220); test: HitHunter cAMP assay, GLP-1 receptor; conditions: for Emax: read-out: Emax GLP-1R
T1 sequence (P43220 24-463): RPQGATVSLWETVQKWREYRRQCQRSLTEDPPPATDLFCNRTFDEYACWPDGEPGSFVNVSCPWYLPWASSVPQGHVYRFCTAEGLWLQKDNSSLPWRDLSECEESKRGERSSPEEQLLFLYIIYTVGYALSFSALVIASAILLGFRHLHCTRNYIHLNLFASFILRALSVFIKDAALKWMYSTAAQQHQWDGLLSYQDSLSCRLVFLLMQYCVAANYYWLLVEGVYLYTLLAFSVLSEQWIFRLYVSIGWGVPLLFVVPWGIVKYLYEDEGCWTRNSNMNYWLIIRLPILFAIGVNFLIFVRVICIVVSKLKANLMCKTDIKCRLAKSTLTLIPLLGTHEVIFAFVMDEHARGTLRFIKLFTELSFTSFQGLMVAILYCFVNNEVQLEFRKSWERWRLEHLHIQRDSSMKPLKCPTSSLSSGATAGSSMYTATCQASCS

[2] = biological target: T2, GIP receptor (Homo sapiens, UniProt P48546); test: HitHunter cAMP assay, GIP receptor; conditions: for Emax: read-out: Emax GIP-1R
T2 sequence (P48546 22-466): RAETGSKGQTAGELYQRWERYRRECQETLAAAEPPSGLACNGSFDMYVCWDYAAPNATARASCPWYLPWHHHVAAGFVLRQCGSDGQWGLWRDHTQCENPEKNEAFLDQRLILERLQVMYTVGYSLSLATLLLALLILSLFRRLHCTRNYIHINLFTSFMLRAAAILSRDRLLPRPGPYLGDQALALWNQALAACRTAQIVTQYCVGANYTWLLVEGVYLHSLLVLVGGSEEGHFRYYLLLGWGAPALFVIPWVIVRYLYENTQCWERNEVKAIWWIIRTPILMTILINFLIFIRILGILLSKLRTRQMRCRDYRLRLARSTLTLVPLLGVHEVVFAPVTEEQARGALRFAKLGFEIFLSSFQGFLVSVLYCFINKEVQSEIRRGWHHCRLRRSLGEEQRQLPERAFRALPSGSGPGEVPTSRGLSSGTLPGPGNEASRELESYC

[3] = biological target: T2, GIP receptor; test: PathHunter β-arrestin assay, GIP receptor; design: host or cells: PathHunter CHO-K1 GIPR β-Arrestin Cell Line
[4] = biological target: T1, GLP-1 receptor; test: PathHunter β-arrestin assay, GLP-1 receptor; design: host or cells: PathHunter CHO-K1 GLP1R β-Arrestin Cell Line
[5] = CHO cells stably expressing human GLP-1 receptor, cAMP accumulation, 30 min, read-out: EC50 GLP-1R
[6] = CHO cells, cAMP, normalized to maximum signal from GLP-1 (high) and DMSO (low)
[7] = CHO cells stably expressing GIP receptor, cAMP accumulation, 30 min, read-out: EC50 GIP-1R
[8] = CHO cells, cAMP, normalized to maximum signal from GIP (high) and DMSO (low)
[9] = β-arrestin-2 recruitment, PathHunter CHO-K1 GIPR β-Arrestin Cell Line, 90 min at 37° C., normalized to GIP, read-out: GIPR β Arrestin EC50
[10] = β-arrestin-2 recruitment, PathHunter CHO-K1 GLP1R β-Arrestin Cell Line, 90 min at 37° C., normalized to GLP-1, read-out: GLP-1R β Arrestin EC50

| Structure (SMILES) | EC50 [1, 5] | Emax [1, 6] | EC50 [2, 7] | Emax [2, 8] | EC50 [3, 9] | EC50 [4, 10] | EC50 [1] | Emax ([1]; CHO) | EC50 [2] | Emax ([2]; CHO) | EC50 [3] | EC50 [4] |
| --- | --- | --- | --- | --- | --- | --- | --- | --- | --- | --- | --- | --- |
| CC[C@H](C)[C@H](NC(=O)[C@H](CC(C)C)NC(=O)[C@H](Cc1c[nH]c2ccccc12)NC(=O)[C@H](CCC(N)=O)NC(=O)[C@@H](NC(=O)[C@H](Cc1ccccc1)NC(=O)[C@H](C)NC(=O)[C@H](CCCCNC(=O)COCCOCCNC(=O)COCCOCCNC(=O)CC[C@H](NC(=O)CCCCCCCCCCCCCCCCCCC(=O)O)C(=O)O)NC(=O)[C@H](CCC(N)=O)NC(=O)[C@H](C)NC(=O)[C@@H](NC(=O)[C@H](CCCCN)NC(=O)[C@H](CC(=O)O)NC(=O)[C@H](CC(C)C)NC(=O)C(C)(C)NC(=O)[C@@H](NC(=O)[C@H](CO)NC(=O)[C@H](Cc1ccc(O)cc1)NC(=O)[C@H](CC(=O)O)NC(=O)[C@H](CO)NC(=O)[C@@H](NC(=O)[C@](C)(Cc1ccccc1F)NC(=O)[C@@H](NC(=O)CNC(=O)[C@H](CCC(=O)O)NC(=O)CCNC(=O)C1(c2cccnc2)CCCC1)[C@@H](C)O)[C@@H](C)O)[C@@H](C)CC)[C@@H](C)CC)C(C)C)C(=O)N[C@@H](C)C(=O)NCC(=O)NCC(=O)N1CCC[C@H]1C(=O)N[C@@H](CO)C(=O)N[C@@H](CO)C(=O)NCC(=O)N[C@@H](C)C(=O)N1CCC[C@H]1C(=O)N1CCC[C@H]1C(=O)N1CCC[C@H]1C(=O)N[C@@H](CO)C(N)=O [Compound 246] ({X60-βAla}-EGT[αMePhe(2-F)]TSDYSI[Aib]LDKIAQK([AEEA-AEEA-γGlu-C20 diacid])AFVQWLIAGGPSSGAPPPS-NH2) | 0.1 to 1 nM | 130% | 0.1 to 1 nM | 100% | < 1000 nM | < 1000 nM | – | – | – | – | – | – |
| CC[C@H](C)[C@H](NC(=O)[C@H](CC(C)C)NC(=O)[C@H](Cc1c[nH]c2ccccc12)NC(=O)[C@H](CCC(N)=O)NC(=O)[C@@H](NC(=O)[C@H](Cc1ccccc1)NC(=O)[C@H](C)NC(=O)[C@H](CCCCNC(=O)COCCOCCNC(=O)COCCOCCNC(=O)CC[C@H](NC(=O)CCCCCCCCCCCCCCCCCCC(=O)O)C(=O)O)NC(=O)[C@H](CCC(N)=O)NC(=O)[C@H](C)NC(=O)[C@@H](NC(=O)[C@H](CCCCN)NC(=O)[C@H](CC(=O)O)NC(=O)[C@H](CC(C)C)NC(=O)C(C)(C)NC(=O)[C@@H](NC(=O)[C@H](CO)NC(=O)[C@H](Cc1ccc(O)cc1)NC(=O)[C@H](CC(=O)O)NC(=O)[C@H](CO)NC(=O)[C@@H](NC(=O)[C@H](Cc1ccccc1)NC(=O)[C@@H](NC(=O)CNC(=O)[C@H](CCC(=O)O)NC(=O)CCCNC(=O)CNC(=O)Nc1cccc(C(F)(F)F)c1)[C@@H](C)O)[C@@H](C)O)[C@@H](C)CC)[C@@H](C)CC)C(C)C)C(=O)N[C@@H](C)C(=O)NCC(=O)NCC(=O)N1CCC[C@H]1C(=O)N[C@@H](CO)C(=O)N[C@@H](CO)C(=O)NCC(=O)N[C@@H](C)C(=O)N1CCC[C@H]1C(=O)N1CCC[C@H]1C(=O)N1CCC[C@H]1C(=O)N[C@@H](CO)C(N)=O [Compound 263] ({X16-CO}-G[GABA]EGTFTSDYSI[Aib]LDKIAQK([AEEA-AEEA-γGlu-C20 diacid])AFVQWLIAGGPSSGAPPPS-NH2) | – | – | – | – | – | – | 1 to 10 nM | 98% | 1 to 10 nM | 104% | > 1000 nM | > 1000 nM |
| CC[C@H](C)[C@H](NC(=O)[C@H](CC(C)C)NC(=O)[C@H](Cc1c[nH]c2ccccc12)NC(=O)[C@H](CCC(N)=O)NC(=O)[C@@H](NC(=O)[C@H](Cc1ccccc1)NC(=O)[C@H](C)NC(=O)[C@H](CCCCNC(=O)COCCOCCNC(=O)COCCOCCNC(=O)CC[C@H](NC(=O)CCCCCCCCCCCCCCCCCCC(=O)O)C(=O)O)NC(=O)[C@H](CCC(N)=O)NC(=O)[C@H](C)NC(=O)[C@@H](NC(=O)[C@H](CCCCN)NC(=O)[C@H](CC(=O)O)NC(=O)[C@H](CC(C)C)NC(=O)C(C)(C)NC(=O)[C@@H](NC(=O)[C@H](CO)NC(=O)[C@H](Cc1ccc(O)cc1)NC(=O)[C@H](CC(=O)O)NC(=O)[C@H](CO)NC(=O)[C@@H](NC(=O)[C@H](Cc1ccccc1)NC(=O)[C@@H](NC(=O)CNC(=O)[C@H](CCC(=O)O)NC(=O)CCCNC(=O)CNC(=O)Nc1ccc(F)c(F)c1)[C@@H](C)O)[C@@H](C)O)[C@@H](C)CC)[C@@H](C)CC)C(C)C)C(=O)N[C@@H](C)C(=O)NCC(=O)NCC(=O)N1CCC[C@H]1C(=O)N[C@@H](CO)C(=O)N[C@@H](CO)C(=O)NCC(=O)N[C@@H](C)C(=O)N1CCC[C@H]1C(=O)N1CCC[C@H]1C(=O)N1CCC[C@H]1C(=O)N[C@@H](CO)C(N)=O [Compound 264] ({X63-CO}-G[GABA]EGTFTSDYSI[Aib]LDKIAQK([AEEA-AEEA-γGlu-C20 diacid])AFVQWLIAGGPSSGAPPPS-NH2) | 1 to 10 nM | 97% | 1 to 10 nM | 106% | < 1000 nM | > 1000 nM | – | – | – | – | – | – |
| CC[C@H](C)[C@H](NC(=O)[C@H](CC(C)C)NC(=O)[C@H](Cc1c[nH]c2ccccc12)NC(=O)[C@H](CCC(N)=O)NC(=O)[C@@H](NC(=O)[C@H](Cc1ccccc1)NC(=O)[C@H](C)NC(=O)[C@H](CCCCNC(=O)COCCOCCNC(=O)COCCOCCNC(=O)CC[C@H](NC(=O)CCCCCCCCCCCCCCCCCCC(=O)O)C(=O)O)NC(=O)[C@H](CCC(N)=O)NC(=O)[C@H](C)NC(=O)[C@@H](NC(=O)[C@H](CCCCN)NC(=O)[C@H](CC(=O)O)NC(=O)[C@H](CC(C)C)NC(=O)C(C)(C)NC(=O)[C@@H](NC(=O)[C@H](CO)NC(=O)[C@H](Cc1ccc(O)cc1)NC(=O)[C@H](CC(=O)O)NC(=O)[C@H](CO)NC(=O)[C@@H](NC(=O)[C@H](Cc1ccccc1)NC(=O)[C@@H](NC(=O)CNC(=O)[C@H](CCC(=O)O)NC(=O)CCCNC(=O)CNC(=O)Nc1ccc(Cl)c(C(F)(F)F)c1)[C@@H](C)O)[C@@H](C)O)[C@@H](C)CC)[C@@H](C)CC)C(C)C)C(=O)N[C@@H](C)C(=O)NCC(=O)NCC(=O)N1CCC[C@H]1C(=O)N[C@@H](CO)C(=O)N[C@@H](CO)C(=O)NCC(=O)N[C@@H](C)C(=O)N1CCC[C@H]1C(=O)N1CCC[C@H]1C(=O)N1CCC[C@H]1C(=O)N[C@@H](CO)C(N)=O [Compound 265] ({NH(4-Cl-3-CF3-phenyl)-CO}-G[GABA]EGTFTSDYSI[Aib]LDKIAQK([AEEA-AEEA-γGlu-C20 diacid])AFVQWLIAGGPSSGAPPPS-NH2) | – | – | – | – | – | – | 10 to 100 nM | 94% | 1 to 10 nM | 107% | < 1000 nM | > 1000 nM |
| CC[C@H](C)[C@H](NC(=O)[C@H](CC(C)C)NC(=O)[C@H](Cc1c[nH]c2ccccc12)NC(=O)[C@H](CCC(N)=O)NC(=O)[C@@H](NC(=O)[C@H](Cc1ccccc1)NC(=O)[C@H](C)NC(=O)[C@H](CCCCNC(=O)COCCOCCNC(=O)COCCOCCNC(=O)CC[C@H](NC(=O)CCCCCCCCCCCCCCCCCCC(=O)O)C(=O)O)NC(=O)[C@H](CCC(N)=O)NC(=O)[C@H](C)NC(=O)[C@@H](NC(=O)[C@H](CCCCN)NC(=O)[C@H](CC(=O)O)NC(=O)[C@H](CC(C)C)NC(=O)C(C)(C)NC(=O)[C@@H](NC(=O)[C@H](CO)NC(=O)[C@H](Cc1ccc(O)cc1)NC(=O)[C@H](CC(=O)O)NC(=O)[C@H](CO)NC(=O)[C@@H](NC(=O)[C@H](Cc1ccccc1)NC(=O)[C@@H](NC(=O)CNC(=O)[C@H](CCC(=O)O)NC(=O)CCCNC(=O)CNC(=O)Nc1cc(Cl)cc(Cl)c1)[C@@H](C)O)[C@@H](C)O)[C@@H](C)CC)[C@@H](C)CC)C(C)C)C(=O)N[C@@H](C)C(=O)NCC(=O)NCC(=O)N1CCC[C@H]1C(=O)N[C@@H](CO)C(=O)N[C@@H](CO)C(=O)NCC(=O)N[C@@H](C)C(=O)N1CCC[C@H]1C(=O)N1CCC[C@H]1C(=O)N1CCC[C@H]1C(=O)N[C@@H](CO)C(N)=O [Compound 266] ({NH(3,5-Cl2-phenyl)-CO}-G[GABA]EGTFTSDYSI[Aib]LDKIAQK([AEEA-AEEA-γGlu-C20 diacid])AFVQWLIAGGPSSGAPPPS-NH2) | – | – | – | – | – | – | 1 to 10 nM | 105% | 1 to 10 nM | 105% | < 1000 nM | > 1000 nM |
